Measured values published in ChEMBL document CHEMBL1201862, “PubChem BioAssay data set” (2004).
Activity calls are given as the source filed them.

Assays:
[1] = microbe, parasite or virus in culture; format: functional; details: Mycobacterium tuberculosis
[2] = molecular target: T1, Protein skinhead-1 (Caenorhabditis elegans, UniProt P34707); format: functional
T1 sequence (P34707 whole entry): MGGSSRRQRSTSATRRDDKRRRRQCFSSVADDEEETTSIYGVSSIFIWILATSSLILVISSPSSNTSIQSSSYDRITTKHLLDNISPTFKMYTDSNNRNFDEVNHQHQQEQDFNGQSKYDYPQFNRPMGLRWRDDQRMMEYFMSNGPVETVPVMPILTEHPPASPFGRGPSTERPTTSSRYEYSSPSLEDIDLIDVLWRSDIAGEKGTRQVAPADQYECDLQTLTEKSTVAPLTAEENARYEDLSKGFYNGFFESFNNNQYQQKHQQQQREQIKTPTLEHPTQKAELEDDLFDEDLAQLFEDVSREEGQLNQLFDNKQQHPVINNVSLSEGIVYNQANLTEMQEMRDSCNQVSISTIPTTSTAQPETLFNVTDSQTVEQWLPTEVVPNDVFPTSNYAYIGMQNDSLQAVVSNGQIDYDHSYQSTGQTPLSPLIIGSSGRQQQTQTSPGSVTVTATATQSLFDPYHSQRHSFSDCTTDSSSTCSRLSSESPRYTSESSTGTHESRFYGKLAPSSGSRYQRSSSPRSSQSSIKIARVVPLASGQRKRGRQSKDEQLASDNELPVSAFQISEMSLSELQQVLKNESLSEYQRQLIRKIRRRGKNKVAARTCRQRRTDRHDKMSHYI

[3] = molecular target: Large T antigen (Simian virus 40, UniProt P03070); format: functional, Betapolyomavirus macacae;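 note: Confirmatory-stage PubChem screen for compounds that inhibit SV40 T antigen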
Chain of Large T antigen (P03070 whole entry): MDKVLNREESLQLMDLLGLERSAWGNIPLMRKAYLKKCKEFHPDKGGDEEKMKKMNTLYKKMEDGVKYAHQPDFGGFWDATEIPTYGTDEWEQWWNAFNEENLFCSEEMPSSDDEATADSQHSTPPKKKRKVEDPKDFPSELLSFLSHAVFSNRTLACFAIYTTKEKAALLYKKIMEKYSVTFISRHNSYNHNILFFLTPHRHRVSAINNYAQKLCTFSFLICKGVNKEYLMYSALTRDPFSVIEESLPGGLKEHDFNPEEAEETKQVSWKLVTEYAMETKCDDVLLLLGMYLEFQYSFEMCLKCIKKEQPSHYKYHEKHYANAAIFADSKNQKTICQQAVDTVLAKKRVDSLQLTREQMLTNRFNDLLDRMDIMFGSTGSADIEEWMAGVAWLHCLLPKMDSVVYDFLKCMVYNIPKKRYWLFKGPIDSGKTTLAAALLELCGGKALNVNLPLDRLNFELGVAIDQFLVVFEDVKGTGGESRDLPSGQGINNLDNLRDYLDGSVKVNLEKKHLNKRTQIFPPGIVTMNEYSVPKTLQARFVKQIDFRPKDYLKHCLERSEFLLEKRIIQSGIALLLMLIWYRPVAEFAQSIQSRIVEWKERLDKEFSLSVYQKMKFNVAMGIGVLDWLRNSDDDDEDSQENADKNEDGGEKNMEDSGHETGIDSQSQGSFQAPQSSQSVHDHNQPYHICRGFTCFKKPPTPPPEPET

[4] = Luminescence Cell-Based Dose Retest to Confirm Inhibitors of Cancer Stem Cells. [Related pubchem assays (depositor defined):AID2717, AID2721]; format: functional; details: Homo sapiens
[5] = molecular target: Genome polyprotein (dengue virus type 2, UniProt P29990); test: flavivirus cap methylation enzyme inhibition – biochemical, confirmation dose response, primary screen (AID 588689); format: functional
Chain of Genome polyprotein (P29990 2492-3391 limits assumed): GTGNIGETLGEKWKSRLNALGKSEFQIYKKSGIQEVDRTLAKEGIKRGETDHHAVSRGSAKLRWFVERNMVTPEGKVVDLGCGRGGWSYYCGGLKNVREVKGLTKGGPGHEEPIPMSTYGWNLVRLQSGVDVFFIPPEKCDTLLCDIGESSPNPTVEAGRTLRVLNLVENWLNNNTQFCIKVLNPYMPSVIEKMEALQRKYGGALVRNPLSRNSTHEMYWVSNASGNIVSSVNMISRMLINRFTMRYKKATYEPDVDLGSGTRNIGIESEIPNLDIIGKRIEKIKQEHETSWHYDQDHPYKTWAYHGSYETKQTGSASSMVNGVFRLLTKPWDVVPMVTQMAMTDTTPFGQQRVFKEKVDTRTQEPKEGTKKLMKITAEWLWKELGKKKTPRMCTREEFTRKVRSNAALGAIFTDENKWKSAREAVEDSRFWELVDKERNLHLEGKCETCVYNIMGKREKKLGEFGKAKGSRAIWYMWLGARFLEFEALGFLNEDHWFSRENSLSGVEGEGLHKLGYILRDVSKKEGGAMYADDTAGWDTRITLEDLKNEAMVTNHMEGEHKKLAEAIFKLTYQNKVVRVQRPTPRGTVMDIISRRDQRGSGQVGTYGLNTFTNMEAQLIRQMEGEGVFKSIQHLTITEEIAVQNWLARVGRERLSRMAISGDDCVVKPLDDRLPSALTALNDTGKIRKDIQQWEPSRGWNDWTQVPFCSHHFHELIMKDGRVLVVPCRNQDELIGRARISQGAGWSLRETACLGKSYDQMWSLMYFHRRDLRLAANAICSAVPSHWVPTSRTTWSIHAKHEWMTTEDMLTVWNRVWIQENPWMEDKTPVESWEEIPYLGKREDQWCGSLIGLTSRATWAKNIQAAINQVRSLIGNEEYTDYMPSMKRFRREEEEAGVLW

[6] = molecular target: T2, Protein RecA (Mycobacterium tuberculosis, UniProt P9WHJ3); test: Fluorescence Cell-Free Homogeneous Dose Retest to Identify Inhibitors of RecA-Intein Splicing Activity. [Related pubchem assays (depositor defined):AID2097, AID2223, AID489010, AID492950]; format: functional
T2 sequence (P9WHJ3 whole entry): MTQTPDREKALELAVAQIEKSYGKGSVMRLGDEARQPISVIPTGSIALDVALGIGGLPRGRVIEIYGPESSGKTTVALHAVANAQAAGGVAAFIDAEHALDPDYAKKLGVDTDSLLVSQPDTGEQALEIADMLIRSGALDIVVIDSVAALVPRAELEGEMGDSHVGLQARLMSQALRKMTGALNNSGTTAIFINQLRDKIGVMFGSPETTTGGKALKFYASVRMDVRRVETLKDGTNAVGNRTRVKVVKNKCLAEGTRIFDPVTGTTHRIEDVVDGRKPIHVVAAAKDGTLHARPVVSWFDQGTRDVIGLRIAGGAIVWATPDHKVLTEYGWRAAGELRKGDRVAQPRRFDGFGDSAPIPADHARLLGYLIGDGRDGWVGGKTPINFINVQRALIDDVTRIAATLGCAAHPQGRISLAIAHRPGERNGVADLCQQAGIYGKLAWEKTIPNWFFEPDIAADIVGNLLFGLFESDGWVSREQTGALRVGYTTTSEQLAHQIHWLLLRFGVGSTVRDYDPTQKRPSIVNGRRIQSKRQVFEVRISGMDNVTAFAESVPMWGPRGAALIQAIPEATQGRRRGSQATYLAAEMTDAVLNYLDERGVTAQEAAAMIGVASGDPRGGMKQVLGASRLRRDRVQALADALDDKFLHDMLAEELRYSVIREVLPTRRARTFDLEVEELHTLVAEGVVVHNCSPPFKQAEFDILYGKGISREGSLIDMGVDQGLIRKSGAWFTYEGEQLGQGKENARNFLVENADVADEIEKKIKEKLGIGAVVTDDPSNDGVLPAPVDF

[7] = NIH3T3 cell viability loss – ATP luminescence, mouse fibroblasts, counter-screen, dose response (AID 2010); format: functional, cell-based;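 note: cells exposed to compound for about 90 hours before reading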
[8] = molecular target: T3, Heat shock factor protein 1 (Mus musculus, UniProt P38532); test: enhancement of HSF1-driven luciferase signal – cell-based, NIH3T3, luminescence, dose retest, confirmation (AID 435004); format: functional;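 note: stress induced by proteasome inhibitor MG132 added 30 min after compound; luciferase reporter driven by HSF1 response element in NIH3T3 cells; actives raise luminescence as potentiators of the MG132 stress response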
T3 sequence (P38532 whole entry): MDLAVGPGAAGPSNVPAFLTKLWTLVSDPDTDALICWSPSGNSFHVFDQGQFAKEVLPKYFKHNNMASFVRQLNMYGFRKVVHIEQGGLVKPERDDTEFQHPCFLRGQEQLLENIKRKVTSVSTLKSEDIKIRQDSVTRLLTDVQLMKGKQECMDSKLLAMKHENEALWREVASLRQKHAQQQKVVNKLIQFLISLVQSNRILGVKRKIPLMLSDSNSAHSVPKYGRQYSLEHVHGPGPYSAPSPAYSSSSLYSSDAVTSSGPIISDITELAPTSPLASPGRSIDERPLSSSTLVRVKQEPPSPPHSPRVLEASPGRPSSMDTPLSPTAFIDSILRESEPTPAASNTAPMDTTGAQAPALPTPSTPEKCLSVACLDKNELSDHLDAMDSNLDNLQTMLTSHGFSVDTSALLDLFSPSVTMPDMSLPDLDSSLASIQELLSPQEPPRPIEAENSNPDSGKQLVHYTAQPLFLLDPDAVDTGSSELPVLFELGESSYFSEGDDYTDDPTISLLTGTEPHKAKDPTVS

[9] = molecular target: T4, Replicative DNA helicase DnaB (Mycobacterium tuberculosis, UniProt P9WMR3); test: DnaB intein splicing inhibitors, dose response, biochemical, cell-free fluorescence (AID 449749); format: functional
T4 sequence (P9WMR3 whole entry): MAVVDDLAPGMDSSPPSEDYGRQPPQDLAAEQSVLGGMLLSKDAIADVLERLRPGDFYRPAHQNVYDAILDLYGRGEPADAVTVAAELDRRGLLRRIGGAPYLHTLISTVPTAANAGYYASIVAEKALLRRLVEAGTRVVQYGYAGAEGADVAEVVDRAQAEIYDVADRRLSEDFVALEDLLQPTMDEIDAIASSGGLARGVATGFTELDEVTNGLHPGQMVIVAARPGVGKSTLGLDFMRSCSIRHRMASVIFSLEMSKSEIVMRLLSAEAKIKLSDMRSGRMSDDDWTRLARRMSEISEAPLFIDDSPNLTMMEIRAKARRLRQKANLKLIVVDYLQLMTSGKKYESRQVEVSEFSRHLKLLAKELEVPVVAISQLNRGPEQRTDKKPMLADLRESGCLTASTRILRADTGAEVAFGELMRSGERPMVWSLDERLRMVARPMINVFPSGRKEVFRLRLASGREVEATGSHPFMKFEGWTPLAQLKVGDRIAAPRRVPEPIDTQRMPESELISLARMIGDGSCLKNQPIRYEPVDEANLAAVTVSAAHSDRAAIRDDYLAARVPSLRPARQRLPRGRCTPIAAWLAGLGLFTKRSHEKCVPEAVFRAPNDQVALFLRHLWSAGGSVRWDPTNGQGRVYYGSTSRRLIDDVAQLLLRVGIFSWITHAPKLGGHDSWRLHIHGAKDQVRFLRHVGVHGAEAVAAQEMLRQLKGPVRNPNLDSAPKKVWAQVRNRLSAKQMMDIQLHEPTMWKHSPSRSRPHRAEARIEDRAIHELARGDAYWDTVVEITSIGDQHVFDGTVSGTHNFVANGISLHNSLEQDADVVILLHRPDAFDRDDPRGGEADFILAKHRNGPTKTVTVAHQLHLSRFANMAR

[10] = Trypanosoma cruzi growth suppression in host cells – NIH3T3 host cells, beta-gal luminescence, confirmation (AID 2044); format: functional, cell-based;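 note: intracellular parasites grown in NIH/3T3 mouse fibroblasts as host cells; luminescent beta-galactosidase reporter signal from transgenic T. cruzi replicating inside host cells; inhibitors lower the luminescence signal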
[11] = Luminescence Cell-Based Dose Response HTS to Identify Activators of Luciferase Translation or Activity in H4 […] Cells. [Related pubchem assays: 1829 (Project Summary), 1814 (Primary HTS)]; format: functional
[12] = test system: H4; test: Luminescence Cell-Based Dose Response HTS to Identify Activators of 5'UTR Stem-Loop Driven Prion Protein mRNA Translation in H4 Neuroglioblastoma Cells. [Related pubchem assays: 1829 (Project Summary), 1814 (Primary HTS)]; format: functional; details: Homo sapiens
[13] = molecular target: Induced myeloid leukemia cell differentiation protein Mcl-1 (Homo sapiens, UniProt Q07820); format: functional
Chain of Induced myeloid leukemia cell differentiation protein Mcl-1 (Q07820 whole entry): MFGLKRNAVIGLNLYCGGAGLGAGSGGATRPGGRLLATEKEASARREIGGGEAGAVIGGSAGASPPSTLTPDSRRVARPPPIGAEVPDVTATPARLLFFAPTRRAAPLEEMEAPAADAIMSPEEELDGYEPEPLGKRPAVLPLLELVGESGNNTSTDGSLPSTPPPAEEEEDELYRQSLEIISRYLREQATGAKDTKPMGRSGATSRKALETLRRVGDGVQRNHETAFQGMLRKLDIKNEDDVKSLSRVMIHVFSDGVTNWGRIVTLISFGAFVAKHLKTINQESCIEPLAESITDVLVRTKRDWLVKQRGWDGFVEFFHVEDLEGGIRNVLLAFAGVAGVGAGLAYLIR

[14] = test system: Streptococcus; test: GAS UMAA2166 growth inhibition – luminescence, BacTiterGlo, counter-screen for streptokinase expression inhibitor project, dose response (AID 1915); format: functional, organism-based;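 note: potency for reduction of bacterial viability or growth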
[15] = molecular target: T5, Streptokinase A (Streptococcus pyogenes serotype M1, UniProt P10520); test: viability-normalized secreted streptokinase activity reduction – plasminogen activation absorbance, OD405, dose response (AID 1914); format: functional, Streptococcus pyogenes M1 GAS;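 note: secreted streptokinase activity via plasminogen activation per viability signal from cell pellet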
T5 sequence (P10520 whole entry): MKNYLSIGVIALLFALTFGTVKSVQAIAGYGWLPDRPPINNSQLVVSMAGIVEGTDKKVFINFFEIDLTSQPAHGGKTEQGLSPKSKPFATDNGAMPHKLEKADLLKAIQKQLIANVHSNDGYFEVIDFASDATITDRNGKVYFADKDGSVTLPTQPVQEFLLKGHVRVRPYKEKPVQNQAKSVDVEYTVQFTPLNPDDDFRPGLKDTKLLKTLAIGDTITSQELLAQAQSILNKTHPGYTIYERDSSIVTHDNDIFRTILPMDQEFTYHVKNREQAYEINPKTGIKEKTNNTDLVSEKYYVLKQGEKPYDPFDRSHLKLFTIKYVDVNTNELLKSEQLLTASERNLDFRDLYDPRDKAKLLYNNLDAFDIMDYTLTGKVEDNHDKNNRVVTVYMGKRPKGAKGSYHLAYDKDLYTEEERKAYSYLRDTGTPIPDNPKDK

[16] = test system: Streptococcus sp. 'group A'; test: Streptococcus pyogenes SK(-)GAS viability under kanamycin – luminescence, BacTiterGlo, confirmation, counter-screen for streptokinase expression inhibitor project, dose response (AID 1900); format: functional, organism-based

CC(C)(C)c1ccc(-c2nc3nc(O)cc(NC(=O)c4ccco4)n3n2)cc1
CC50 [1]: > 40 µM (active)

COc1cc(CCC(=O)OCC(=O)Nc2ccc(F)cc2F)cc(OC)c1OC
IC50 [2]: > 100 µM (inactive)

O=C(CCOc1ccccc1)N1CCN(c2ccc(O)cc2)CC1
IC50 [3]: 4.19 µM (active)
AC50 [4]: 11.3 µM (active)

Cc1ccc2nc3c(cc(C(=O)NCc4ccco4)c(=N)n3Cc3ccco3)c(=O)n2c1
CC50 [1]: 23.8 µM (active)

CCOc1cc(/C=C/c2cc(C(F)(F)F)nc(O)n2)ccc1O
IC50 [3]: 13 µM (active)

O=c1c(-c2cnn(-c3ccccc3)c2)coc2cc(O)ccc12
CC50 [1]: > 40 µM (active)

COc1ccc(CN2CCN(Cc3ccco3)CC2)cc1
IC50 [2]: > 100 µM (inactive)

CCOc1ccc(OCCC(=O)OCC(=O)N2CCN(S(=O)(=O)c3ccc(C)cc3)CC2)cc1
IC50 [3]: 11.1 µM (active)

Fc1ccc(-c2nc(-c3cccs3)no2)cc1
IC50 [2]: > 100 µM (inactive)

O=C(O)/C=C/C(=O)c1ccc2c(c1)NC(=O)CO2
IC50 [5]: > 100 µM (active)

O=C(c1ccccc1)c1ccc(OCCOCCN2CCN(Cc3ccccc3)CC2)cc1
CC50 [1]: > 40 µM (active)

Cc1ccccc1-c1nc(C[S+]([O-])CC(=O)NCc2ccc3c(c2)OCO3)c(C)o1 (stereo unspecified)
IC50 [2]: > 100 µM (inactive)

C=C[S+]([O-])c1sc(Cl)c(N2CCOCC2)c1[N+](=O)[O-] (stereo unspecified)
IC50 [3]: 9.77 µM (active)
EC50 [6]: 18.8 µM (active)
EC50 [7]: 3.08 µM (active)
EC50 [8]: 3.36 µM (inconclusive)
AC50 [9]: 22.2 µM (active)
EC50 [10]: 2.99 µM (active)

c1csc(-c2cn3ccc4ccccc4c3n2)c1
EC50 [11]: 26 µM (active)
EC50 [12]: 0.106 µM (active)
IC50 [2]: 33.6 µM (active)

CCN1CCN(c2ncnc3c2c(-c2ccccc2)cn3-c2ccc(F)cc2)CC1
IC50 [2]: 12.6 µM (active)

Cc1cc(C)n2nc(/C(C#N)=C/c3ccccn3)c(C#N)c2n1
CC50 [1]: > 40 µM (active)

OC(CN1CCN(c2ccccn2)CC1)Cn1c2ccccc2c2ccccc21 (stereo unspecified)
CC50 [1]: > 40 µM (active)

CCN(CC)c1ccc(NC(=O)CCNC(=O)c2ccco2)cc1
IC50 [3]: 6.69 µM (active)
IC50 [13]: 9.57 µM (not active)

O=C(CN1C(=O)NC2(CCCC2)C1=O)Nc1cc(S(=O)(=O)N2CCOCC2)ccc1OCC(F)(F)F
IC50 [2]: > 100 µM (inactive)

Cc1cnc(C(=O)N(CCCn2ccnc2)C2C(=O)Nc3ccccc3N=C2c2ccccc2)cn1 (stereo unspecified)
IC50 [2]: > 100 µM (inactive)

COc1cc(/C=N/N=C2/C(=O)Nc3ccccc32)ccc1O
IC50 [3]: 8.73 µM (active)

Cc1nn(-c2ccccc2)c(Cl)c1/C=C1\SC(=S)N(CCCCCC(=O)O)C1=O
EC50 [14]: 11.2 µM (active)
EC50 [15]: 40.7 µM (inconclusive)
EC50 [6]: 14.2 µM (active)
EC50 [16]: 5.26 µM (active)
AC50 [9]: 4.93 µM (active)
IC50 [5]: 41.4 µM (active)
